Laboratory results from US11365177B2, “Chemical uncouplers of respiration and methods of use thereof” (Dana-Farber Cancer Institute, Inc., priority 2017, dated 2022).
Like-named read-outs stand apart in the source and are kept apart here. Peptide text beside a SMILES is read from it. * marks the point of attachment. Oleoyl = CCCCCCCC/C=C\CCCCCCCC(=O)*

Test system: C2C12 cells
Assay: Measurement of cellular respiration (Seahorse), uncoupling bioactivity
Assay type: cell-based
Settings: Mus musculus, 50 μM compound, maximal increase versus basal oligomycin-treated respiration, means SEM, n=3-6/group, read-out: % stimulation of respiration (baseline = 100%)
Method: Oligomycin was purchased from EMD Millipore, and FCCP and rotenone were purchased from Sigma. C2C12 cells were seeded at 35,000 cells/well in an XF24 cell culture microplate (V7-PS, Seahorse Bioscience) and analyzed the following day. On the day of analysis, the cells were washed once with Seahorse respiration buffer (8.3 g/l DMEM, 1.8 g/l NaCl, 1 mM pyruvate, 20 mM glucose, pen/strep), placed in 0.5 ml Seahorse respiration buffer, and incubated in a CO2-free incubator for 1 h. Port injection solutions were prepared as follows (final concentrations in assay in parentheses): 10 μM oligomycin (1 μM final), 500 μM indicated compound (50 μM final), 2 μM FCCP (0.2 μM final), and 30 μM rotenone (3 μM final). The Seahorse program was run as follows: basal measurement, 3 cycles; inject port A (oligomycin), 3 cycles; inject port B (compounds), 8 cycles; inject port C (FCCP), 3 cycles; inject port D (rotenone), 3 cycles. Each cycle consisted of mix 2 min, wait 0 min, and measure 2 min. For data expressed as a percentage of oligomycin-treated basal, the respiration at cycle 6 was normalized to 100%, and the maximum respiration at any time point between cycles 7 and 15 inclusive was used.
Tables 1-4 show uncoupling bioactivity of compounds of the disclosure with different fatty acid side chains. Respiration in C2C12 cells is shown as maximal increases versus basal oligomycin-treated respiration, which is normalized to 100%. Data are shown as means SEM, n=3-6/group.

[1] = Table 3, various fatty acid side chains

Compound	activity at 50 µM (Table 2, various head groups)	activity at 50 µM [1]	further results
CCCCCCCC/C=C\CCCCCCCC(=O)N[C@@H](Cc1ccccc1)C(=O)O [Compound 1, Oleoyl-L-phenylalanine]	161 ± 12%		
CCCCCCCC/C=C\CCCCCCCC(=O)N[C@H](Cc1ccccc1)C(=O)O [Compound 2, Oleoyl-D-phenylalanine]	173 ± 9%		
CCCCCCCC/C=C\CCCCCCCC(=O)NCCc1ccccc1 [Compound 3, N-phenethyloleamide]	104 ± 4%		
CCCCCCCC/C=C\CCCCCCCC(=O)N[C@@H](CC(C)C)C(=O)O [Compound 4, Oleoyl-L-leucine]	178 ± 13%		
CCCCCCCC/C=C\CCCCCCCC(=O)N[C@H](C(=O)O)[C@@H](C)CC [Compound 5, Oleoyl-L-isoleucine]	167 ± 14%		
CCCCCCCC/C=C\CCCCCCCC(=O)N[C@@H](CCC(N)=O)C(=O)O [Compound 6, Oleoyl-L-glutamine]	164 ± 4%		
CCCCCCCC/C=C\CCCCCCCC(=O)N1CCC[C@H]1C(=O)O [Compound 7, Oleoyl-L-proline]	182 ± 7%		
CCCCCCCC/C=C\CCCCCCCC(=O)N[C@@H](Cc1c[nH]c2ccccc12)C(=O)O [Compound 8, Oleoyl-L-tryptophan]	147 ± 9%		
CCCCCCCC/C=C\CCCCCCCC(=O)N[C@@H](CCCCN)C(=O)O [Compound 9, Oleoyl-L-lysine]	108 ± 4%		
CCCCCCCC/C=C\CCCCCCCC(=O)N[C@@H](Cc1ccc(O)cc1)C(=O)O [Compound 10, Oleoyl-L-tyrosine]	105 ± 13%		
CCCCCCCC/C=C\CCCCCCCC(=O)N[C@@H](CCC(=O)O)C(=O)O [Compound 11, Oleoyl-L-glutamic acid]	106 ± 7%		
CCCCCCCC/C=C\CCCCCCCC(=O)NCC(=O)NCC(=O)O [Compound 12, Oleoylglycylglycine] (Oleoyl-Gly-Gly-OH)	206 ± 32%		
CCCCCCCC/C=C\CCCCCCCC(=O)NCCC(=O)O [Compound 13, 3-Oleamidopropanoic acid]	185 ± 10%		
CCCCCCCCCCCC(=O)N[C@@H](Cc1ccccc1)C(=O)O [Compound 14, Dodecanoyl-L-phenylalanine]		96 ± 4%	
CCCCCCCCCCCCCCCC(=O)N[C@@H](Cc1ccccc1)C(=O)O [Compound 15, Palmitoyl-L-phenylalanine]		180 ± 20%	
CCCCCCCCCCCCCCCCCC(=O)N[C@@H](Cc1ccccc1)C(=O)O [Compound 16, Stearoyl-L-phenylalanine]		148 ± 12%	
CCCCCCCCCCCCCCCCCCCC(=O)N[C@@H](Cc1ccccc1)C(=O)O [Compound 17, Icosanoyl-L-phenylalanine]		95 ± 8%	

Compound	activity at 50 µM (Table 2, various head groups)	activity at 50 µM [1]	further results
CCCCCCCCCCCCCCCCCCCCCC(=O)N[C@@H](Cc1ccccc1)C(=O)O [Compound 18, Docosanoyl-L-phenylalanine]		100 ± 3%	
CCCCC/C=C\C/C=C\CCCCCCCC(=O)N[C@@H](Cc1ccccc1)C(=O)O [Compound 19, ((9Z,12Z)-Octadeca-9,12-dienoyl)-L-phenylalanine]		218 ± 10%	
CCC/C=C\C/C=C\C/C=C\CCCCCCC(=O)N[C@@H](Cc1ccccc1)C(=O)O [Compound 20, ((8Z,11Z,14Z)-Octadeca-8,11,14-trienoyl)-L-phenylalanine]		109 ± 12%	
CCCCCCCC/C=C/CCCCCCCC(=O)N[C@@H](Cc1ccccc1)C(=O)O [Compound 21, (E)-Octadec-9-enoyl-L-phenylalanine]		107 ± 3%	
CCCCCCCCCCC/C=C\CCCCC(=O)N[C@@H](Cc1ccccc1)C(=O)O [Compound 22, (Z)-Octadec-6-enoyl-L-phenylalanine]		110 ± 12%	
CCCCCC/C=C\CCCCCCCCCC(=O)N[C@@H](Cc1ccccc1)C(=O)O [Compound 23, (Z)-Octadec-11-enoyl-L-phenylalanine]		115 ± 8%	
CCCCCCCC/C=C\CCCCCCCCCC(=O)N[C@@H](Cc1ccccc1)C(=O)O [Compound 24, (Z)-Icos-11-enoyl-L-phenylalanine]		103 ± 3%	
CCCCC/C=C\C/C=C\C/C=C\C/C=C\CCCC(=O)N[C@@H](Cc1ccccc1)C(=O)O [Compound 25, ((5Z,8Z,11Z,14Z)-Icosa-5,8,11,14-tetraenoyl)-L-phenylalanine]		200 ± 12%	
CC/C=C\C/C=C\C/C=C\C/C=C\C/C=C\CCCC(=O)N[C@@H](Cc1ccccc1)C(=O)O [Compound 26, ((5Z,8Z,11Z,14Z,17Z)-Icosa-5,8,11,14,17-pentaenoyl)-L-phenylalanine]		259 ± 43%	
CC/C=C\C/C=C\C/C=C\C/C=C\C/C=C\C/C=C\CCC(=O)N[C@@H](Cc1ccccc1)C(=O)O [Compound 27, ((4Z,7Z,10Z,13Z,16Z,19Z)-Docosa-4,7,10,13,16,19-hexaenoyl)-L-phenylalanine]		166 ± 11%	
CCCCCCCC/C=C\CCCCCCCCNC(=O)NCC(=O)O [Compound 28, (Z)-(Octadec-9-en-1-ylcarbamoyl)glycine]			activity at 50 µM (Table 4, urea analogs): 104 ± 3%
CCCCCCCC/C=C\CCCCCCCCNC(=O)N[C@@H](Cc1ccccc1)C(=O)O [Compound 29, (Z)-(Octadec-9-en-1-ylcarbamoyl)-L-phenylalanine]			activity at 50 µM (Table 4, urea analogs): 97 ± 5%
CCCCCCCC/C=C\CCCCCCCC(=O)N1CCCC[C@H]1C(=O)O [Compound 30, (S)-1-Oleoylpiperidine-2-carboxylic acid]			activity at 50 µM (Table 5, cyclic head groups): 174 ± 3%
CCCCCCCC/C=C\CCCCCCCC(=O)N1Cc2ccccc2C[C@H]1C(=O)O [Compound 31, (S)-2-Oleoyl-1,2,3,4-tetrahydroisoquinoline-3-carboxylic acid]			activity at 50 µM (Table 5, cyclic head groups): 187 ± 19%
CCCCCCCC/C=C\CCCCCCCC(=O)N1CCc2ccccc2C1C(=O)O (stereo not drawn) [Compound 32, 2-Oleoyl-1,2,3,4-tetrahydroisoquinoline-1-carboxylic acid]			activity at 50 µM (Table 5, cyclic head groups): 216 ± 17%
CCCCCCCC/C=C\CCCCCCCC(=O)N1c2ccccc2C[C@H]1C(=O)O [Compound 35, (S)-1-Oleoylindoline-2-carboxylic acid]			activity at 50 µM (Table 5, cyclic head groups): 146 ± 5%
